Assay results taken from ChEMBL document CHEMBL1909622, “Identification of a novel RAMP-independent CGRP receptor antagonist” (Bioorg Med Chem Lett, 2011).

What was measured:
[1] = tested on: CGRP receptor (CALCRL/RAMP1) (Homo sapiens); assay: Ratio Ki for CGRP receptor in human SK-N-MC cells in the absence of MgCl2 to Ki for CGRP receptor in human SK-N-MC cells in the presence of MgCl2
[2] = Volume of distribution at steady state in rat at 2 mg/kg, iv and 10 mg/kg, po; type: ADME, organism-based; settings: in vivo, read-out: Vdss
[3] = Half life in rat at 2 mg/kg, iv; type: ADME, organism-based; set-up: dose 2 mg/kg, route intravenous; settings: in vivo
[4] = Oral bioavailability in rat at 10 mg/kg; type: ADME, organism-based; settings: in vivo
[5] = Clearance in dog at 0.5 mg/kg, iv and 1 mg/kg, po; type: ADME, organism-based, Canis lupus familiaris; settings: in vivo
[6] = Clearance in rat at 2 mg/kg, iv and 10 mg/kg, po; type: ADME, organism-based; settings: in vivo
[7] = Volume of distribution at steady state in dog at 0.5 mg/kg, iv and 1 mg/kg, po; type: ADME, organism-based, Canis lupus familiaris; settings: in vivo, read-out: Vdss
[8] = Half life in dog at 0.5 mg/kg, iv; type: ADME, organism-based, Canis lupus familiaris; set-up: dose 0.5 mg/kg, route intravenous; settings: in vivo
[9] = Oral bioavailability in dog at 1 mg/kg; type: ADME, organism-based, Canis lupus familiaris; settings: in vivo

Ratio Ki [1] | Vd [2] | half-life [3] | bioavailability [4] | clearance [5] | clearance [6] | Vd [7] | half-life [8] | bioavailability [9] | Structure (SMILES)
1 | – | – | – | – | – | – | – | – | CC(C)C[C@H](NC(=O)CNC(=O)[C@H](C)NC(=O)[C@H](CC(C)C)NC(=O)[C@H](CCCNC(=N)N)NC(=O)[C@H](Cc1cnc[nH]1)NC(=O)[C@@H](NC(=O)[C@@H](NC(=O)[C@H](CS)NC(=O)[C@@H](NC(=O)[C@H](C)NC(=O)[C@@H](NC(=O)[C@H](CC(=O)O)NC(=O)[C@H](CS)NC(=O)[C@H](C)N)[C@@H](C)O)[C@@H](C)O)C(C)C)[C@@H](C)O)C(=O)N[C@@H](CC(C)C)C(=O)N[C@@H](CO)C(=O)N[C@@H](CCCNC(=N)N)C(=O)N[C@@H](CO)C(=O)NCC(=O)NCC(=O)N[C@H](C(=O)N[C@H](C(=O)N[C@@H](CCCCN)C(=O)N[C@@H](CC(N)=O)C(=O)N[C@@H](CC(N)=O)C(=O)N[C@@H](Cc1ccccc1)C(=O)N[C@H](C(=O)N1CCC[C@H]1C(=O)N[C@H](C(=O)N[C@@H](CC(N)=O)C(=O)N[C@H](C(=O)NCC(=O)N[C@@H](CO)C(=O)N[C@@H](CCCCN)C(=O)N[C@@H](C)C(=O)N[C@@H](Cc1ccccc1)C(N)=O)C(C)C)[C@@H](C)O)C(C)C)C(C)C)C(C)C
– | 0.4 L/kg | 5.4 h | 26% | 5.1 mL/min/kg | 1.1 mL/min/kg | 3 L/kg | 7.1 h | 13% | O=C(NCc1cc(F)cc(F)c1)c1nc(N2CCCCS2(=O)=O)cc(Br)c1O
